Format in all cases: cell-based
One experiment deals with Bacillus Cereus. As to the kind of experiment: Agar plate disc-diffusion, antibacterial inhibition zone. To be noted: DMSO control zone subtracted. The method, then:
(§1) The agar plate disc-diffusion method was applied. Sterilized filter papers (6 mm in diameter) were wetted with 10 μL of a solution of compounds 6-(6-bromo-2-oxo-2H-chromen-3-yl)-4-(3-bromophenyl)-2-ethoxynicotinonitrile 1 or 6-(6-bromo-2-oxo-2H-chromen-3-yl)-4-(3-bromophenyl)-2-methoxynicotinonitrile 2 to be tested, containing […], and the discs were allowed to air dry. The discs were then placed onto the surface of agar plates (nutrient agar for bacteria and Sabouraud's dextrose agar for fungi) seeded with the test organism. Each plate contained 15 mL of the agar medium, previously seeded with 0.2 mL of the broth culture of each organism pregrown for 18 hours. The plates were incubated at 37° C. for 48 hours, and 72 hours for fungi. The inhibition zones were measured in mm. Discs impregnated with DMSO were used as a control, and its inhibition zone was subtracted from the tested compound actual inhibition zone.
(§2) The results of the antimicrobial testing can be observed in Tables 1 and 2, below, using ciprofloxacin as a reference.
(In general: In agar diffusion tests the substance spreads into inoculated agar from a disc or well.)

A further experiment deals with Escherichia coli. Described as above. To be noted: DMSO control zone subtracted. The method, then: as §1, §2
The subject of a further experiment is Pseudomonas aeruginosa. Described as above. To be noted: DMSO control zone subtracted. The method, then: as §1, §2
The next experiment concerns Staphylococcus aureus. The experiment is described as above. The conditions noted are these: DMSO control zone subtracted. The method, then:
as §1, §2

The next experiment deals with Aspergillus flavus. The experiment is described as follows: Agar plate disc-diffusion, antifungal inhibition zone. The conditions noted are these: DMSO control zone subtracted. The method, then: as §1, §2
The subject of experiment [1] is Chrysosporium keratinophilum. The experiment is described as above. The conditions noted are these: DMSO control zone subtracted. The method, then: as §1, §2
A further experiment relates to different microbes. The experiment is described as follows: Antimicrobial testing, overall conclusion. To be noted: summary of Tables 1 and 2, bacteria and fungi. As to the method: as §1, §2
Their antibacterial activity was screened against gram positive bacteria namely Bacillus cereus and Staphylococcus aureus and gram-negative bacterial strains namely Pseudomonas aeruginosa and Escherichia coli, while their antifungal activity was screened against Aspergillus flavus and Chrysosporium keratinophilum.

The mark [2] stands for this setting: B = concentration of comp. = 30,000 μL.
The mark [3] stands for this setting: C = concentration of comp. = 50,000 μL.
[4] abbreviates: A = concentration of comp. = 10,000 μL.

Take `O=C(O)c1cn(C2CC2)c2cc(N3CCNCC3)c(F)cc2c1=O` [Cip., ciprofloxacin, reference compound]: the inhibition zone is listed as 29 mm with Bacillus Cereus (A =); 30 mm with Bacillus Cereus (setting [2]); 42 mm with Bacillus Cereus (setting [3]); 30 mm in the experiment on Escherichia coli (setting [4]); 39 mm with Escherichia coli (setting [2]); 60 mm with Escherichia coli (setting [3]). The inhibition zone was determined as 29 mm in the experiment on Pseudomonas aeruginosa (A = concentration of comp.); 30 mm in the experiment on Pseudomonas aeruginosa (setting [2]); 53 mm in the experiment with Pseudomonas aeruginosa (setting [3]); 43 mm in the experiment with Staphylococcus aureus (setting [4]); 44 mm in the experiment with Staphylococcus aureus (setting [2]); 53 mm in the experiment on Staphylococcus aureus (setting [3]). The inhibition zone in the experiment with Aspergillus flavus (setting [4]) came out at 29 mm; in the experiment on Aspergillus flavus (setting [2]) it was 30 mm; in the experiment with Aspergillus flavus (setting [3]), 42 mm; in experiment [1] (setting [4]) it was 29 mm; in experiment [1] (setting [2]) it was 30 mm; in experiment [1] (setting [3]), 53 mm.
For the compound `CCOc1nc(-c2cc3cc(Br)ccc3oc2=O)cc(-c2cccc(Br)c2)c1C#N` [Compound 1, 6-(6-bromo-2-oxo-2H-chromen-3-yl)-4-(3-bromophenyl)-2-ethoxynicotinonitrile], the inhibition zone with Bacillus Cereus (A =) was found to be 23 mm; in the experiment on Bacillus Cereus (setting [2]), 26 mm; with Bacillus Cereus (setting [3]) it was 36 mm; in the experiment on Escherichia coli (setting [4]), 28 mm; in the experiment on Escherichia coli (setting [2]), 37 mm; in the experiment with Escherichia coli (setting [3]) it was 48 mm. Moreover, the inhibition zone in the experiment on Pseudomonas aeruginosa (A = concentration of comp.) amounted to 24 mm; with Pseudomonas aeruginosa (setting [2]) it was 28 mm; with Pseudomonas aeruginosa (setting [3]) it was 38 mm; with Staphylococcus aureus (setting [4]) it was 16 mm; in the experiment with Staphylococcus aureus (setting [2]) it was 19 mm; in the experiment on Staphylococcus aureus (setting [3]), 33 mm. For the same compound, the inhibition zone is 20 mm in the experiment with Aspergillus flavus (setting [4]); 24 mm in the experiment with Aspergillus flavus (setting [2]); 34 mm with Aspergillus flavus (setting [3]); 25 mm in experiment [1] (setting [4]); 28 mm in experiment [1] (setting [2]); 39 mm in experiment [1] (setting [3]). Besides, the “antimicrobial activities (in words)” value with different microbes was “high antimicrobial activities”.
On to `COc1nc(-c2cc3cc(Br)ccc3oc2=O)cc(-c2cccc(Br)c2)c1C#N` [Compound 2, 6-(6-bromo-2-oxo-2H-chromen-3-yl)-4-(3-bromophenyl)-2-methoxynicotinonitrile], for which the inhibition zone in the experiment on Bacillus Cereus (A =) worked out at 27 mm; in the experiment with Bacillus Cereus (setting [2]), 29 mm; in the experiment on Bacillus Cereus (setting [3]), 37 mm; in the experiment with Escherichia coli (setting [4]), 28 mm; in the experiment on Escherichia coli (setting [2]), 35 mm; in the experiment with Escherichia coli (setting [3]) it was 48 mm. The inhibition zone in the experiment with Pseudomonas aeruginosa (A = concentration of comp.) is 25 mm; in the experiment with Pseudomonas aeruginosa (setting [2]), 32 mm; in the experiment with Pseudomonas aeruginosa (setting [3]), 37 mm; in the experiment on Staphylococcus aureus (setting [4]), 15 mm; in the experiment with Staphylococcus aureus (setting [2]), 23 mm; with Staphylococcus aureus (setting [3]), 29 mm. Further, the inhibition zone came to 24 mm with Aspergillus flavus (setting [4]); 27 mm in the experiment with Aspergillus flavus (setting [2]); 39 mm in the experiment with Aspergillus flavus (setting [3]); 24 mm in experiment [1] (setting [4]); 28 mm in experiment [1] (setting [2]); 42 mm in experiment [1] (setting [3]). In addition, the “antimicrobial activities (in words)” value with different microbes is “high antimicrobial activities”.
